Patent US20160279297A1, “METHODS FOR INHIBITING STENOSIS, OBSTRUCTION, OR CALCIFICATION OF A STENTED HEART VALVE OR BIOPROSTHESIS” (CONCIEVALVE LLC, priority 2013, published 2016)

Legend:
[1] = rabbit model of experimental hypercholesterolemia, serum levels; format: in vivo; conditions: cholesterol-fed rabbits, atorvastatin 3.0 mg/kg daily orally
Source text: An experimental animal was developed to test for the dosing of the atorvastatin to reduce the inflammation and also the pannus formation on the valve leaflet. The experimental procedure is as follows, Male New Zealand white rabbits weighing 2.5-3.0 kg were assigned to a control (N=10) or 0.5% cholesterol-fed group (N=10) or to a cholesterol-fed and atorvastatin group (N=10). All animals were fed ad libitum for 12 weeks. Control rabbits were fed a standard diet. Cholesterol-fed animals received a diet supplemented with 0.5% (w/w) cholesterol (Purina Mills, Woodmont, Ind.), and the cholesterol-fed and atorvastatin group were given atorvastatin 3.0 mg/kg daily orally for the statin treatment arm^1. Prior to the initiation of the diet the rabbits underwent surgical implantation of bovine pericardial bioprosthetic valve tissue (Perimount, Edwards, Irvine Calif.) using intramuscular ketamine/xylazine (40/5 mg/kg). Following this 12-week period, the rabbits were anesthetized using intramuscular ketamine/xylazine (40/5 mg/kg) and then underwent euthanasia with intracardiac administration of 1 ml of Beuthanasia. Immediately after removal from the subcutaneous implantation site the bioprosthetic valves were fixed in 4% buffered formalin for 24 hours and then embedded in paraffin. Paraffin embedded sections (6 μm) were cut and stained with Masson Trichrome stain for histopathologic exam. […]

[2] = tested on: bovine pericardial bioprosthetic valve tissue; experiment: rabbit model with subcutaneously implanted bioprosthetic valve tissue: RNA expression and pannus formation; format: in vivo
Mesenchymal valve cells = experiment: tritiated thymidine incorporation, PDGF-stimulated cell proliferation; format: cell-based
Method: Mesenchymal valve cells were isolated from the cardiac aortic valves by collagenase digestion. Cells were cultured in medium 199 with 10% (v/v) heat-inactivated fetal bovine serum at 37 C in a humidified atmosphere of 5% CO2 in air. Cells were utilized between the 3rd and 7th passage. Mesenchymal cells were grown to confluence in 24-well plates and then growth-arrested by incubation in serum-free medium for 24 hours. The test materials were added to the wells and incubated for 18 hours. Test materials include PDGF at concentrations (10-40 ug/ml) PDGF Sigma in combination with a MEK inhibitor (PD0325901 Mek Inhibitor) (2.5-10 ug/ml). The wells were pulsed for 4 hours with 1 μCi/well of tritiated thymidine. Newly synthesized DNA will be then identified by incorporation of radioactivity into acid-precipitated cellular material. All samples were assayed in quadruplicate wells. The positive control wells were given PDGF (10 ug/ml) Sigma (St. Louis, Mo.), the negative control wells received serum-free medium.

p42/44 = p42/44 protein expression by western blot; format: cell-based; conditions: FIG. 16 Panel C
[3] = from biodegradable polylactic acid, follow-up of four years; cited from earlier work
neointima hyperplasia = conditions: stent coating, at four weeks; cited from earlier work
[4] = atorvastatin at 80 mg per day equivalent to human dosing, FIG. 15

CC(C)c1c(C(=O)Nc2ccccc2)c(-c2ccccc2)c(-c2ccc(F)cc2)n1CC[C@@H](O)C[C@@H](O)CC(=O)O [Atorvastatin]
hsCRP serum levels ([1]; 12 weeks): 7.8±8.7 | serum cholesterol levels ([1]; 12 weeks (equivalent to 80 mg a day for humans)): 824.0 ± 152.1 mg/dL | stem cell RNA expression on the valves [2, 4]: reduction | stem cell mediated pannus formation [2, 4]: reduction | therapeutic benefit at the lower dosing ranges ([2]; previous experiments, 20 mg a day and 40 mg a day): zero therapeutic benefit | ckit stem cell adhering to the valve ([2]; rabbit, in vivo): reduces

PDGF
mesenchymal cell proliferation (Mesenchymal valve cells; PDGF dose response 10-40 ug/ml, FIG. 16 Panel A): proliferating | p42/44 protein expression (p42/44): increase

CCOCCO[C@@H]1CC[C@@H](C[C@@H](C)[C@@H]2CC(=O)[C@H](C)/C=C(\C)[C@@H](O)[C@@H](OC)C(=O)[C@H](C)C[C@H](C)/C=C/C=C/C=C(\C)[C@@H](OC)C[C@@H]3CC[C@@H](C)[C@@](O)(O3)C(=O)C(=O)N3CCCC[C@H]3C(=O)O2)C[C@H]1OC [biolimus]
major adverse clinical events versus sirolimus eluting stents [3]: not inferior and potentially better

CC(=O)O[C@H]1C(=O)[C@@]2(C)[C@H]([C@H](OC(=O)c3ccccc3)[C@]3(O)C[C@H](OC(=O)[C@H](O)[C@@H](NC(=O)c4ccccc4)c4ccccc4)C(C)=C1C3(C)C)[C@]1(OC(C)=O)CO[C@@H]1C[C@@H]2O [Paclitaxel]
neointima hyperplasia (neointima hyperplasia): inhibits

O=C(NOC[C@H](O)CO)c1ccc(F)c(F)c1Nc1ccc(I)cc1F [PD0325901]
dosing range with inhibition effect on cell proliferation (Mesenchymal valve cells; PDGF 10 ug/ml induced proliferation, tested range 2.5-10 ug/ml, 18 hours, FIG. 16 Panel B): 5 to 10 µg/mL | p42/44 protein expression (p42/44): inhibition
